The record followed here is PubChem BioAssay (NCI).

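Cultured in 96-well plates, cells were exposed to test compound for 48 hours across five concentrations. The concentration for full growth arrest is given as TGI.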

Test systems include HS 578T breast; CCRF-CEM leukemia; MDA-MB-435; BT-549 breast; SNB-19 CNS; IGROV1 ovarian; A549 NSCLC; LOX IMVI melanoma; HOP-62 NSCLC; OVCAR-4 ovarian; M14 melanoma; MDA-MB-231 breast; MCF7 breast; HCT-15 colon; PC-3 prostate; SF-295 CNS; SNB-75 CNS; NCI-H226 lung; RPMI-8226 leukemia; MALME-3M melanoma.
Experiment in all cases: NCI tumour cell line growth inhibition, 48 h

Regarding `CC(C)=C1C(=O)C[C@]2(C)C[C@H]3/C(=C(/C)CCC12)CC[C@@]3(C)O` (some centres undefined), the TGI in the assay with HS 578T breast, in the assay on CCRF-CEM leukemia, in the assay on MDA-MB-435, in the assay on BT-549 breast, in the assay with SNB-19 CNS and in the assay on IGROV1 ovarian was above 50 µM each time. Moreover, the TGI with A549 NSCLC, with LOX IMVI melanoma, with HOP-62 NSCLC, in the assay with OVCAR-4 ovarian, with M14 melanoma and in the assay on MDA-MB-231 breast was above 50 µM each time. Besides, the TGI in the assay on MCF7 breast, in the assay with HCT-15 colon, in the assay on PC-3 prostate, in the assay on SF-295 CNS, with SNB-75 CNS and in the assay with NCI-H226 lung was above 50 µM throughout. In the assay with RPMI-8226 leukemia, this molecule came in with a TGI above 50 µM.
Turning to `C[C@@]12CCC3C1C=C1C(=O)c4cc(O)ccc4C(=O)[C@]1(O2)[C@@]3(C)C=O`, the TGI came to 75 µM with HS 578T breast; 4.02 µM with CCRF-CEM leukemia; 11.3 µM in the assay with MDA-MB-435; 8.69 µM with BT-549 breast; 18.4 µM in the assay on SNB-19 CNS; 19.6 µM in the assay with IGROV1 ovarian. Further, the TGI in the assay on A549 NSCLC stood at 27.2 µM; in the assay on LOX IMVI melanoma, 11.2 µM; in the assay with HOP-62 NSCLC, 20.2 µM; in the assay with OVCAR-4 ovarian, 15.7 µM; with M14 melanoma it was 19.9 µM; in the assay with MDA-MB-231 breast, 19.3 µM. Besides, the TGI in the assay with MCF7 breast turned out to be 11.6 µM; in the assay on HCT-15 colon, 11.5 µM; in the assay with PC-3 prostate it was 19.5 µM; with SF-295 CNS it was 22 µM; with NCI-H226 lung, 44.5 µM; with RPMI-8226 leukemia, 9.01 µM.
With `O=C(c1cc(Cl)cc(Cl)c1)N1CCN(C(=O)c2cc(Cl)cc(Cl)c2)C1=S`, the TGI with HS 578T breast was above 100 µM; in the assay on MALME-3M melanoma it was 25.5 µM; in the assay on CCRF-CEM leukemia it was 21.4 µM; in the assay on MDA-MB-435 it was 29.9 µM; in the assay on BT-549 breast it was 70.8 µM; in the assay on SNB-19 CNS, 37.1 µM. For the same molecule, the TGI in the assay with IGROV1 ovarian is 32.8 µM; with A549 NSCLC it was 44.6 µM; in the assay with LOX IMVI melanoma, 11.6 µM; in the assay on HOP-62 NSCLC, 33.8 µM; with OVCAR-4 ovarian it was 38.4 µM; in the assay with M14 melanoma it was 27.3 µM. Besides, the TGI is 31.9 µM in the assay with MDA-MB-231 breast; 12.5 µM in the assay on MCF7 breast; 31 µM in the assay with HCT-15 colon; 30.3 µM in the assay on PC-3 prostate; 44.7 µM with SF-295 CNS; 27.8 µM in the assay on SNB-75 CNS. Also, in the assay on NCI-H226 lung, the TGI stood at 49.8 µM.
Regarding `COc1ccc(N2C(=O)CS(=O)(=O)C2c2cccc(Oc3ccccc3)c2)cc1` (centres undefined), the TGI is 28.5 µM with HS 578T breast; 54.6 µM in the assay on MALME-3M melanoma; above 100 µM in the assay on CCRF-CEM leukemia; 7.08 µM in the assay with MDA-MB-435; 54.1 µM in the assay with BT-549 breast; above 100 µM in the assay on SNB-19 CNS. The TGI is above 100 µM in the assay with A549 NSCLC; 29.5 µM in the assay with LOX IMVI melanoma; above 100 µM in the assay with HOP-62 NSCLC; 79.5 µM in the assay on OVCAR-4 ovarian; 22.6 µM with M14 melanoma; 7.6 µM in the assay with MDA-MB-231 breast. Moreover, the TGI was 4.72 µM with MCF7 breast; 55.2 µM in the assay with HCT-15 colon; 51.9 µM with PC-3 prostate; above 100 µM in the assay with SF-295 CNS; 45.2 µM in the assay with SNB-75 CNS; 52.6 µM in the assay with NCI-H226 lung.
For the molecule `CCCNC(=S)/N=C/c1c(O)c2ccccc2[nH]c1=O`, the TGI in the assay on HS 578T breast, in the assay on CCRF-CEM leukemia, in the assay with MDA-MB-435, in the assay with BT-549 breast, with SNB-19 CNS and in the assay with IGROV1 ovarian was above 100 µM in each case. Further, the TGI with A549 NSCLC, in the assay on LOX IMVI melanoma, with HOP-62 NSCLC, in the assay on OVCAR-4 ovarian, with M14 melanoma and in the assay with MDA-MB-231 breast was above 100 µM throughout. The TGI in the assay with MCF7 breast, in the assay on HCT-15 colon, in the assay on PC-3 prostate, with SF-295 CNS, in the assay on SNB-75 CNS and in the assay on NCI-H226 lung was above 100 µM in each case. Moreover, the TGI in the assay with RPMI-8226 leukemia was above 100 µM.
In the case of `CC(C)(C)C(=O)OC(N)/C=C/c1ccccc1` (centres undefined), the TGI in the assay with HS 578T breast, in the assay with MALME-3M melanoma, in the assay with CCRF-CEM leukemia, in the assay on MDA-MB-435, in the assay with BT-549 breast and in the assay on IGROV1 ovarian was above 100 µM in each case. The TGI in the assay on A549 NSCLC, in the assay on HOP-62 NSCLC, with OVCAR-4 ovarian, with M14 melanoma, in the assay on MDA-MB-231 breast and in the assay on MCF7 breast was above 100 µM throughout. In addition, the TGI with HCT-15 colon, in the assay on PC-3 prostate, with SF-295 CNS, with SNB-75 CNS, in the assay on NCI-H226 lung and with RPMI-8226 leukemia was above 100 µM each time.
Regarding `Cc1ccc(NC(=S)NNC(=O)c2cc(-c3ccccc3)nc3ccccc23)cc1`, the TGI came out at 38.2 µM in the assay with HS 578T breast; 34.6 µM in the assay on MALME-3M melanoma; 10.9 µM in the assay with MDA-MB-435; 32.7 µM in the assay on BT-549 breast; 42.4 µM in the assay on SNB-19 CNS; 36.7 µM in the assay with IGROV1 ovarian. Also, the TGI in the assay on A549 NSCLC is 26.2 µM; in the assay on HOP-62 NSCLC, 27.8 µM; in the assay on OVCAR-4 ovarian it was 35.6 µM; in the assay on M14 melanoma, 26.8 µM; in the assay on MDA-MB-231 breast, 36.3 µM; in the assay on MCF7 breast, 31.5 µM. Also, the TGI with HCT-15 colon turned out to be 25.9 µM; with PC-3 prostate, 32.2 µM; in the assay on SF-295 CNS, 17.4 µM; in the assay with SNB-75 CNS, 42.3 µM; in the assay on NCI-H226 lung, 39.7 µM; in the assay with RPMI-8226 leukemia, 39.2 µM.
